Results: US10144690B2, “1,2-diphenylethylene glycol compounds for combating aging of the skin, and cosmetic use thereof” (L'OREAL, priority 2014, dated 2018)

System: phospho-AMPK (Thr-172) (p-AMPK)
Assay: p-AMPK expression by Western blotting in normal human epidermal keratinocytes (p-AMPK/GAPDH ratio relative to control)
Type: cell-based
Conditions: 12 hours incubation
Method: Normal human epidermal keratinocytes are seeded at 180 000 cells per well and cultured in SFM culture medium (supplier Gibco) supplemented with 0.25 ng/ml EGF, 25 μg/ml of pituitary extract and 25 μg/ml gentamicin, up to confluence, and incubated in a humid oven at 37° C. and 5% CO2. The culture medium was then replaced with test medium (SFM (Gibco) supplemented with 25 μg/ml gentamicin) containing or not containing (control) the test compounds, the combinations or the reference (AICAR—(5-amino-4-imidazolecarboxamide riboside) at 500 μM). The cells were then incubated for 12 hours.
The level of expression of p-AMPK was analyzed by Western blotting.
At the end of the incubation, the proteins were extracted and quantified and then separated by electrophoresis on 10% polyacrylamide gel and then transferred onto a nitrocellulose membrane.
Between each successive revelation, the antibodies were detached using a “stripping” buffer. The images were acquired with a Fuji LAS 3000 chemiluminescence scanner (Fujifilm) and the densitometric analyses were performed using the Multigauge software (Fujifilm).
An increase in the phosphorylated form of AMPK (active form of the enzyme) relative to the control is evaluated in this test.
Expressed in the form of the p-AMPK/GAPDH ratio relative to the control (100%): […]

Row | SMILES | p-AMPK/GAPDH ratio relative to the control (100%) (test compound 1 μM) [%] | p-AMPK/GAPDH ratio relative to the control (100%) (test compound 10 μM) [%] | p-AMPK/GAPDH ratio relative to the control (100%) (test compound 100 μM) [%]
1 | COc1ccc([C@@H](O)[C@H](O)c2ccc(OC)cc2)cc1 [Compound 1] | 133 | 171 | 198
2 | COc1ccc(C(O)[C@H](O)c2ccc(OC)cc2)cc1 (stereo partly drawn) [Compound 2] | 94 | 134 | 149
3 | COc1cc(C(O)C(O)c2ccc(O)c(OC)c2)ccc1O (stereo not drawn) [Compound 3] | 112 | 147 | 158
4 | Oc1ccc(C(O)C(O)c2cc(O)cc(O)c2)cc1 (stereo not drawn) [Compound 4] | 132 | 140 | 159
